In ChEMBL document CHEMBL3507680, “University of Dundee, Gates Library screen for HepG2 cell viability”:

Assay: Human HepG2 cell viability assay in 384 well format
Assay type: toxicity, cell-based
Set-up: dose 125 nL, time 70.5 hour; cytotoxicity at 70.5 h: concentration not given beside the values
Settings: HepG2 cells, read-out: Inhibition

## COc1c(C(=O)N2CCC(COCc3ccccc3)C2)c(C)nn1C (configuration not stated)
  cytotoxicity at 70.5 h: -0.0423%

## CC(C)C(O)CCNC(=O)Nc1cc(F)ccc1-n1cccn1 (configuration not stated)
  cytotoxicity at 70.5 h: 14.9%

## Cc1cnn(C2CN(Cc3nnc(C4CC4)o3)C2)c1
  cytotoxicity at 70.5 h: -10.1%

## CC(C)c1nc(C2CCCN2c2ccnc(C3CCCC3)n2)no1 (configuration not stated)
  cytotoxicity at 70.5 h: -6.75%

## Cc1cnn(C2CN(Cc3noc(C)n3)C2)c1
  cytotoxicity at 70.5 h: -6.5%

## Cc1cc(=O)n2nc(Oc3cccc(I)c3)sc2n1
  cytotoxicity at 70.5 h: -20.9%

## CN(C)c1ncccc1CNC(=O)NCC(c1cccs1)N(C)C (configuration not stated)
  cytotoxicity at 70.5 h: -23.8%

## CN(C)CCn1c2c(ccc1=O)CCN(Cc1ccncc1)CC2
  cytotoxicity at 70.5 h: -4.6%

## Cc1noc(C)c1CN1CCn2cc(CN3CCOCC3)nc2C1
  cytotoxicity at 70.5 h: -0.251%

## COCCN(C)C(=O)c1nc2c(s1)CCCN2c1ccc(C)nn1
  cytotoxicity at 70.5 h: -1.66%

## O=C(CC1CC1)N1C[C@H]2CCN[C@H]2C1
  cytotoxicity at 70.5 h: -4.97%

## CC(C)(C)CC(=O)N1C[C@H]2CCN[C@H]2C1
  cytotoxicity at 70.5 h: -2.71%

## O=C1CO[C@@H]2CN(S(=O)(=O)c3ccc(F)cc3)C[C@H]2N1
  cytotoxicity at 70.5 h: 15.2%

## COCC1COCCC12CCN(S(=O)(=O)c1ccc(C)cc1)CC2 (configuration not stated)
  cytotoxicity at 70.5 h: -4.01%

## CN(C)CCOCc1cncc2c1CCN(C(=O)c1cscn1)C2
  cytotoxicity at 70.5 h: -3.85%

## COc1cc(N2C[C@@H]3COC[C@@H](Cc4nc(C)no4)[C@@H]3C2)ncn1
  cytotoxicity at 70.5 h: -7.51%

## COCC(=O)N1CCC2(CC1)CN(CC1CC1)c1ccc(F)cc12
  cytotoxicity at 70.5 h: 2.37%

## CC1c2ncc(Cn3cccn3)n2CCN1S(=O)(=O)C1CC1 (configuration not stated)
  cytotoxicity at 70.5 h: -5.83%

## O=C(c1ccno1)N1CC[C@@H]2CN(C3CCOCC3)CCO[C@@H]2C1
  cytotoxicity at 70.5 h: -5.94%

## Cc1nc(-c2ccccc2)nc2c1CCN(Cc1nccn1C)CC2
  cytotoxicity at 70.5 h: -10.4%

## Cn1c2c(c(=O)n1C)CN(C(=O)c1cnccn1)CCC2
  cytotoxicity at 70.5 h: -8.23%

## CN(C)CC(=O)N1CCO[C@@H]2CC(COCc3ccncc3)C[C@H]21 (some centres not stated)
  cytotoxicity at 70.5 h: -8%

## Cn1nccc1-c1cnc2n1CCC21CCN(C(=O)C2(C)CC2)CC1
  cytotoxicity at 70.5 h: -11%

## COCCN1CCN(c2cc(OC)ncn2)Cc2ccc(C)nc21
  cytotoxicity at 70.5 h: -10.4%

## O=C(Cc1ccccn1)N1C[C@H]2CN(Cc3ccccn3)C[C@H]2C1
  cytotoxicity at 70.5 h: -10%

## CC(C)N(C)Cc1cc(=O)n2c(n1)CN(C(=O)c1ccc[nH]1)CCC2
  cytotoxicity at 70.5 h: 0.329%

## Cc1cccc(CN2C[C@@H]3CN(C(=O)C4CCOC4)C[C@@H]3C2=O)c1 (some centres not stated)
  cytotoxicity at 70.5 h: 2.05%

## O=C(C1CCOC1)N1C[C@H]2CN(Cc3cccc(F)c3)C(=O)[C@H]2C1 (some centres not stated)
  cytotoxicity at 70.5 h: -0.77%

## Cc1cccc(CN2CCC3(CC2)COC(COCC2CC2)C3)n1 (configuration not stated)
  cytotoxicity at 70.5 h: -6.77%

## COc1cc(N2CCN(CC3CC3)c3nc(C)ccc3C2)ncn1
  cytotoxicity at 70.5 h: 0.313%

## Cc1csc(CN2CCC3(CC2)COC(COc2ccccn2)C3)n1 (configuration not stated)
  cytotoxicity at 70.5 h: -5.82%

## Cn1nccc1-c1cnc2n1CCNC21CCN(C(=O)C2(C)CC2)CC1
  cytotoxicity at 70.5 h: -9.28%

## CCS(=O)(=O)N1CCc2c(COC)cncc2C1
  cytotoxicity at 70.5 h: 17.2%

## CC(C)n1c2ccccc2c2c1cc(C(=O)N(C)C)n2S(C)(=O)=O
  cytotoxicity at 70.5 h: 13.1%

## CNC(=O)NCC1CCC2(CCN(C(=O)c3ccccc3)CC2)CO1 (configuration not stated)
  cytotoxicity at 70.5 h: -2.1%

## O=C(c1ccc[nH]1)N1CCCn2c(CN3CCCCC3)nnc2C1
  cytotoxicity at 70.5 h: -5.4%

## COc1cccc(N2CCN(C(=O)C(C)Oc3ccccc3)CC2=O)c1 (configuration not stated)
  cytotoxicity at 70.5 h: 20.9%

## Cn1nnnc1SCCNC1CCN(c2ccc3c(c2)OCO3)CC1
  cytotoxicity at 70.5 h: 4.51%

## CSc1ncc(CN(C)C(C)c2cccnc2)cn1 (configuration not stated)
  cytotoxicity at 70.5 h: -0.91%

## N[C@H]1CN(C(=O)Cc2ccc(CO)cc2)C[C@@H]1C1CC1
  cytotoxicity at 70.5 h: 34.3%

## Cc1cncc(NC(=O)c2ccc(CN3CC[C@H](O)C3)cc2)c1
  cytotoxicity at 70.5 h: 19.1%

## CCOc1ncccc1CNc1cc(COC)ncn1
  cytotoxicity at 70.5 h: 1.28%

## COc1cc2nc(NCCN3CCNC3=O)cc(C)c2cc1OC
  cytotoxicity at 70.5 h: -0.54%

## CCOC(=O)C1(CCOC)CCN(Cc2nccn2CC)CC1
  cytotoxicity at 70.5 h: -7.56%

## Cc1cc(C)n(CC(C)NC(=O)C2(c3ccccc3F)CC2)n1 (configuration not stated)
  cytotoxicity at 70.5 h: -7.8%

## CC(C)Cc1nc(CN(C)c2cc(C(C)C)nc3ccnn23)no1
  cytotoxicity at 70.5 h: -10.6%

## CN(Cc1cc(C(C)(C)C)n[nH]1)C(=O)c1c[nH]nc1-c1cccc(F)c1
  cytotoxicity at 70.5 h: -8%

## O=C(CC1CCCC1)N[C@H]1CN(Cc2c[nH]cn2)C[C@@H]1C1CC1
  cytotoxicity at 70.5 h: 20.4%

## Cc1nc(O)cc(CCNC(=O)CN2CCCCCC2)n1
  cytotoxicity at 70.5 h: 1.28%

## COCc1nc(NC(C)c2c(C)n[nH]c2C)c2cnn(C)c2n1 (configuration not stated)
  cytotoxicity at 70.5 h: -5.38%

## Cc1cc(C(F)(F)F)nc(CNc2cc(C)nc3cc(C)nn23)n1
  cytotoxicity at 70.5 h: -2.86%

## CCN(Cc1nc(COC)no1)Cc1ccccc1OCC(=O)O
  cytotoxicity at 70.5 h: 20%

## Cc1ccsc1CN1CCC(c2nnc(Cn3cccn3)n2C)CC1
  cytotoxicity at 70.5 h: -2.95%

## Cc1ccc(CN2C[C@@H](C(=O)O)[C@H](c3cccnc3)C2)s1
  cytotoxicity at 70.5 h: 1.41%

## Cc1ncc(CN2CCN(C(=O)N(C)C)[C@@H]3CS(=O)(=O)C[C@@H]32)cn1
  cytotoxicity at 70.5 h: -26.5%

## NCC1Cc2cc(-c3cncc(C(=O)N4CCCCC4)n3)cc(F)c2O1 (configuration not stated)
  cytotoxicity at 70.5 h: -4.24%

## COCCc1noc(CN2CC(Cc3ccccc3)CC2=O)n1 (configuration not stated)
  cytotoxicity at 70.5 h: -20.5%

## CC1(C)[C@H]2CC=C(CN3CCCn4nc(CNS(C)(=O)=O)cc4C3)[C@@H]1C2
  cytotoxicity at 70.5 h: -8.88%

## CN1CCN(S(=O)(=O)c2ccc(C(=O)N3CC[C@@H](O)C3)cc2)CC1=O
  cytotoxicity at 70.5 h: -5.98%

## C=C(C)COc1cccc(C(=O)N2CCC3(CCOCC3)CC2)c1
  cytotoxicity at 70.5 h: 3.55%

## CC(=O)c1ccccc1-c1cc(C(=O)O)cc(S(=O)(=O)NC(C)C)c1
  cytotoxicity at 70.5 h: -14.9%

## CC(C)C[C@@H](C(N)=O)n1cc(-c2cncnc2)nn1
  cytotoxicity at 70.5 h: -8.12%

## OCc1ccc(CN(CCCn2ccnc2)Cc2ccncc2)o1
  cytotoxicity at 70.5 h: -4.15%

## O=C(c1cccc(-c2ccc(F)cc2)c1)N1CCCC(O)(CO)CC1 (configuration not stated)
  cytotoxicity at 70.5 h: 9.52%

## CCC(=O)N1CCN(C(=O)c2ccc(OC)o2)[C@H]2CS(=O)(=O)C[C@H]21
  cytotoxicity at 70.5 h: -4.25%

## CN1CCN(C(=O)N2CC[C@@](O)(c3ccccc3)[C@H]3CCCC[C@@H]32)CC1
  cytotoxicity at 70.5 h: -5.89%

## c1cnc(NCc2cncc3c2CCN(CC2CC2)C3)nc1
  cytotoxicity at 70.5 h: 3.44%

## Cc1nccc(NCc2cncc3c2CCN(CC2CC2)C3)n1
  cytotoxicity at 70.5 h: 9.03%

## CC(C)N(C)Cc1cncc2c1CCN(CC1CC1)C2
  cytotoxicity at 70.5 h: 15.2%

## Cc1cc(CN2C[C@H](OCC3CCOCC3)[C@H]3COC[C@H]32)oc1C
  cytotoxicity at 70.5 h: -0.082%

## O=C(C1CCOCC1)N1C[C@H]2CCC[C@@]2(COc2cccnc2)C1
  cytotoxicity at 70.5 h: -1.29%

## CN(C)CCN1C(=O)CCCC12CCCN(C(=O)c1cc[nH]n1)C2 (configuration not stated)
  cytotoxicity at 70.5 h: -4.9%

## O=C(c1ccoc1)N1CCOC2(COCCN(CC3CC3)C2)C1 (configuration not stated)
  cytotoxicity at 70.5 h: -1.92%

## c1cc(CN2CC[C@@H]3CN(c4cnccn4)C[C@@H]3C2)ccn1
  cytotoxicity at 70.5 h: -3.4%

## O=C(c1cscn1)N1CCc2c(COCC3CC3)cncc2C1
  cytotoxicity at 70.5 h: -1.4%

## CN(C)Cc1nc2c(o1)CN(S(=O)(=O)c1cccs1)C2
  cytotoxicity at 70.5 h: -9.46%

## Cc1ccc(C(=O)N2CC[C@@H]3CN(C4CCOCC4)CCO[C@@H]3C2)o1
  cytotoxicity at 70.5 h: -7.78%

## O=S(=O)(c1cccs1)N1Cc2nc(CN3CCCCC3)oc2C1
  cytotoxicity at 70.5 h: -8.94%

## O=C(c1cccs1)N1CC[C@@H]2CN(C3CCOCC3)CCO[C@@H]2C1
  cytotoxicity at 70.5 h: -6.31%

## Cc1ccoc1C(=O)N1CC[C@@H]2CN(C3CCOCC3)CCO[C@@H]2C1
  cytotoxicity at 70.5 h: -0.955%

## Cc1nnc(N2CCCC3(CN(c4ccccn4)CCO3)C2)o1 (configuration not stated)
  cytotoxicity at 70.5 h: 1.16%

## CN1C(=O)CCC12CCN(c1ccc(C#N)cn1)CC2
  cytotoxicity at 70.5 h: -8.99%

## c1cnc(N2C[C@H]3CCN(Cc4ccncc4)C[C@H]3C2)nc1
  cytotoxicity at 70.5 h: -7.09%

## Cc1ccc(N2C[C@H]3CCN(Cc4ccncc4)C[C@H]3C2)nn1
  cytotoxicity at 70.5 h: -9.91%

## CCc1ccc(S(=O)(=O)N2Cc3c(CN(C)C)nn(C)c3C2)cc1
  cytotoxicity at 70.5 h: -5.86%

## O=C(c1ccno1)N1CCO[C@@H]2CC(COCc3ccccn3)C[C@H]21 (some centres not stated)
  cytotoxicity at 70.5 h: -6.23%

## O=C(C1CCC1)N1C[C@@H]2CN(Cc3ccncc3)C(=O)[C@@H]2C1
  cytotoxicity at 70.5 h: -12.5%

## Cc1nc(N2CCOCC2)nc2c1CCN(Cc1nccn1C)CC2
  cytotoxicity at 70.5 h: -11.2%

## Cc1nc(C)c2c(n1)CCN(Cc1nccn1C)CC2
  cytotoxicity at 70.5 h: -8.56%

## CN(C)Cc1cc(=O)n2c(n1)CN(C(=O)c1ccc[nH]1)CCC2
  cytotoxicity at 70.5 h: -2.94%

## CCN1CCC(c2nc3ccc(NC4CCC4)cn3n2)CC1
  cytotoxicity at 70.5 h: -4.48%

## CS(=O)(=O)NCc1cc(=O)n2c(n1)CN(CC1CC1)CCC2
  cytotoxicity at 70.5 h: 7.49%

## CCCN1CCC(c2nc3ccc(-c4cccc(OC)c4)cn3n2)CC1
  cytotoxicity at 70.5 h: -1.57%

## CCCS(=O)(=O)N1CCC2(CC1)CN(CC1CCOC1)c1ccccc12 (configuration not stated)
  cytotoxicity at 70.5 h: 3.95%

## CCOC(=O)[C@]12CCCN(Cc3cccs3)C[C@H]1CN(CCOC)C2
  cytotoxicity at 70.5 h: 1.08%

## c1ccc(N2CC[C@H](OCC3CC3)[C@@H]2Cc2cccnc2)nc1
  cytotoxicity at 70.5 h: -3.44%

## c1cncc(OC[C@@]23CCC[C@@H]2CN(CC2CCOCC2)C3)c1
  cytotoxicity at 70.5 h: -1.42%

## CCOC(=O)[C@]12CCCN(Cc3cccs3)C[C@H]1CN(CC(C)C)C2
  cytotoxicity at 70.5 h: -2.32%

## CCN1CCC2(C1)CN(S(=O)(=O)c1cn(C)cn1)C2
  cytotoxicity at 70.5 h: -5.09%

## O=C(c1ccncc1)N1CC[C@@H]2CN(C3CCOCC3)CCO[C@@H]2C1
  cytotoxicity at 70.5 h: -9.58%

## CC(C)CN1CCC2(C1)CN(S(=O)(=O)c1cn(C)cn1)C2
  cytotoxicity at 70.5 h: 4.36%

## c1cnc(N2C[C@H]3CCN(CCN4CCCC4)C[C@H]3C2)cn1
  cytotoxicity at 70.5 h: -5.43%

## CC(C)N1CCO[C@H]2CN(Cc3cc[nH]n3)C[C@H]21
  cytotoxicity at 70.5 h: -5.26%

## COCCN1CCO[C@H]2CN(Cc3cccc(C)n3)C[C@H]21
  cytotoxicity at 70.5 h: -5.32%

## COCCN1CCN(c2ccc(C)nn2)Cc2ccc(C)nc21
  cytotoxicity at 70.5 h: -3.87%

## Cn1nccc1-c1nnn2c1COCC(CNC1CCOCC1)C2 (configuration not stated)
  cytotoxicity at 70.5 h: 0.0787%

## CCS(=O)(=O)N1CCc2c(COCCN(C)C)cncc2C1
  cytotoxicity at 70.5 h: 2.79%
